In brackets after ≈: the same amount, converted by molar mass. Several values for one entry are separate records, joined by “and”; a condition that tells them apart may be missing. Equal values may be shown once.
Experiments:
[1] = test system: Staphylococcus aureus 308 A-1; experiment: MIC by agar dilution method (Trypticase soy agar), Staphylococcus aureus 308 A-1; type: cell-based; conditions: 308A1, 37° C. overnight
Protocol: (§1) The MIC of each test compound (the compounds obtained in Examples 1 and 2) was determined by the agar dilution method. Thus, 1.0 ml aliquots of serial dilutions of the test compound in water were poured into petri dishes, and 9.0 ml of Trypticase soy agar is added to each dish and stirred. A suspension (about 10^8 CFU/ml) of each test organism is smeared on each agar plate, which is then incubated at 37° C. overnight. The lowest concentration of the test compound which causes a complete growth inhibition of the test organism was determined and taken as the MIC (minimal inhibitory concentration) against the same organism.
(1) Staphylococcus aureus 308 A-1

[2] = test system: Pseudomonas aeruginosa P 9; experiment: MIC by agar dilution method (Trypticase soy agar), Pseudomonas aeruginosa P 9; type: cell-based; conditions: P9, (4) Pseudomonas aeruginosa P 9, 37° C. overnight
Protocol: as §1
(4) Pseudomonas aeruginosa P 9

[3] = test system: Staphylococcus aureus 1840; experiment: MIC by agar dilution method (Trypticase soy agar), Staphylococcus aureus 1840; type: cell-based; conditions: (2) Staphylococcus aureus 1840, 37° C. overnight
Protocol: as §1
(2) Staphylococcus aureus 1840

[4] = test system: Proteus morganii IFO 3168; experiment: MIC by agar dilution method (Trypticase soy agar), Proteus morganii IFO 3168; type: cell-based; conditions: Morganella morganii, IFO3168, (3) Proteus morganii IFO 3168, 37° C. overnight
Protocol: as §1
(3) Proteus morganii IFO 3168

[5] = concentration levels in plasma upon rectal administration (suppository), by biological assay; type: in vivo, rat (Wistar; conditions: rectal suppository 50 mg/kg, fasted male Wistar rats
Protocol: Employing the compound (I) prepared in Example 1 mentioned below, the concentration levels in plasma (plasma levels of said compound) upon rectal administration were measured by the procedure described below.
Suppositories containing the product of Example 1 which were prepared according to Example 3 mentioned below were given (50 mg/kg in terms of said product) into the rectum of three male rats No. 1 to 3 (Wistar, body weight of 300 to 400 g) being fasted for 20 hours. The anuses were closed with an adhesive agent, and blood sample were taken from the tail veins after 0.5, 1, 2 and 4 hours to determine quantitatively the plasma levels of the product of Example 1 by means of the biological assay method. As the test microorganisms for the assay, Escherichia coli NIHJ and Proteus rettgeri ATCC 9250 were employed.
A 250 mg portion of finely divided 7β-[2-(5-amino-1,2,4-thiadiazol-3-yl)-(Z)-2-methoxyiminoacetamido]-3- [(6-aminoimidazo[1,2-b]pyridazinium-1-yl)methyl]-3-cephem-4-carboxylate and 4750 mg of Isocacao MO-5 (produced by Kao, Ltd. in Japan) were uniformly sitrred at 40° to 45° C. and cooled to 35° C. under stiring, followed by filling the mixture into a suppository container made of plastics and gradually cooling to obtain a suppository.

| MIC [1] [mg/L] | MIC [2] [mg/L] | MIC [3] [mg/L] | MIC [4] [mg/L] | Concentration levels in plasma, 0.5 hr ([5]; 0.5 hr, individual rats: No. 1, No. 2, No. 3, 30 min) | Concentration levels in plasma, 1 hr ([5]; 1 hr, individual rats: No. 1, No. 2, No. 3, 60 min) | Concentration levels in plasma, 2 hr ([5]; 2 hr, individual rats: No. 1, No. 2, No. 3, 120 min) | Concentration levels in plasma, 4 hr ([5]; 4 hr, individual rats: b116 = No. 1, b117 = No. 2 (No. 3 not tested), 240 min) [µg/mL] | concentration at 4 h ([5]; rat, plasma, 50 mg/kg, 4 hr, individual rats: b116 = No. 1, b117 = No. 2 (No. 3 not tested)) [µg/mL] | SMILES |
| --- | --- | --- | --- | --- | --- | --- | --- | --- | --- |
| 0.39 (≈ 0.735 µM) | 0.39 (≈ 0.735 µM) | 0.78 (≈ 1.47 µM) | 0.2 (≈ 0.377 µM) | 0.13 µg/mL and 2.4 µg/mL and 5.7 µg/mL | 0.74 µg/mL and 4.2 µg/mL and 5.9 µg/mL | 1.7 µg/mL and 4.6 µg/mL and 2.7 µg/mL | 2.8 | 4.3 | CO/N=C(\C(=O)N[C@@H]1C(=O)N2C(C(=O)[O-])=C(C[n+]3ccn4nc(N)ccc43)CS[C@H]12)c1nsc(N)n1 [Example 1, 7β-[2-(5-amino-1,2,4-thiadiazol-3-yl)-(Z)-2-methoxyiminoacetamide]-3-[(6-aminoimidazo[1,2-b]pyridazinium-1-yl)methyl]-3-cephem-4-carboxylate] |
| 0.39 (≈ 0.716 µM) | 0.78 (≈ 1.43 µM) | 0.78 (≈ 1.43 µM) | 0.39 (≈ 0.716 µM) | – | – | – | – | – | CCO/N=C(\C(=O)N[C@@H]1C(=O)N2C(C(=O)[O-])=C(C[n+]3ccn4nc(N)ccc43)CS[C@H]12)c1nsc(N)n1 [Example 2, 7β-[2-(5-amino-1,2,4-thiadiazol-3-yl)-(Z)-2-ethoxyiminoacetamido]-3-[(6-aminoimidazo[1,2-b]pyridazinium-1-yl)methyl]-3-cephem-4-carboxylate] |

Source: patent US4942159A, “Cephem compounds, their production and use” (Takeda Chemical Industries, Ltd., priority 1987, dated 1990)
